In patent US9290468B2, “Benzoheterocyclic compounds and use thereof” (SHANGHAI KECHOW PHARMA, INC., priority 2012, dated 2016):

Key:
[1] = tested on: HT29 human colon cancer cells xenograft; assay: In vivo anti-tumor efficacy in HT29 tumor xenograft model; set-up: species or system BALB/c nude mice; details: 20 mg/kg, oral gavage once daily, after 16 days of treatment, HT29 xenograft in nude mice
Experimental: Female BALB/c nude mice of 5-6 week old were used for all the in vivo efficacy studies. Mice were injected with HT29 human colon cancer cells at 5×10^6 cells per 100 μL SFM into right flank. Tumor volumes were monitored by caliper measurement using the formula: tumor volume (mm^3)=(w^2×l)/2, where w=width and c=length in mm of the tumor. When the tumor volumes reached 150˜300 mm^3, mice were randomized to treatment groups (5˜10 mice per group) to receive compounds (20 mg/kg doses) or vehicle by oral gavage once daily for 16 days. The tumor volumes and body weight were measured every 2-3 days for data analysis. Tumor growth inhibition (TGI) and body weight changes were calculated compared to the vehicle treated groups.

HT29 cells = assay: Cell growth inhibition assay (MTT), HT29 cells; assay type: cell-based; details: Homo sapiens, HT-29, 72 h
Experimental: (§1) When the HT29 cells reach their exponential phase of growth, 4×10^3 cells/well were plated into 96-well plates, the edge of plates were filled with sterility PBS, at the same time, filled three holds only with medium as blank group. • 2. The plates were cultured in a humidified 5% CO2 incubator at 37° C. for 24 h, and allowed to proliferate for reaching their exponential phase of growth. • 3. Samples were dissolved in DMSO (dimethyl sulfoxide), the concentration of Samples is 10 mmol/L, 1 mmol/L, 100 μmol/L, 10 μmol/L, 1 μmol/L, 0.1 μmol/L, and further diluted with cell culture medium. The final does concentration were 10 μmol/L, 1 μmol/L, 100 nmol/L, 10 nmol/L, 1 nmol/L, 0.1 nmol/L, 0 nmol/L (the control group). The final DMSO concentration used was 1‰ of total volume of medium in all treatments, including the control group. • Blank: medium • Control: the same dose of DMSO with experiment. Group, the DMSO was diluted with cell perfect culture medium. • Experiment: the cells were treated with the concentration of 10 μmol/L, 1 μmol/L, 100 nmol/L, 10 nmol/L, 1 nmol/L, 0.1 nmol/L. • 4. The plates were cultured in a humidified 5% CO2 incubator at 37° C. for 72 h. 20 μL of 3-(4,5-dimethylthiazol-2-yl)-2,5-diphenyltetrazolium bromide (MTT) reagent (5 mg/mL) in phosphate buffered serum (PBS) was added to each well. • 5. The plates were cultured in a humidified 5% CO2 incubator at 37° C. for 4 h. Subsequently, the solution was aspirated and 150 uL dimethyl sulfoxide was added to release the formed formazan crystals from the living cells mitochondria into the solution. • 6. After moderated shaking for 3 min, absorbance was measured at 490 nm using microplate reader. Methods 2 (A375) • 1. When the A375 cells reach their exponential phase of growth, 5×10^3 cells/well were plated into 96-well plates, the edge of plates were filled with sterility PBS, at the same time, filled three holds only with medium as blank group. • 2. The plates were cultured in a humidified 5% CO2 incubator at 37° C. for 24 h. Allowed to proliferate for reaching their exponential phase of growth. • 3. Samples were dissolved in DMSO (Dimethyl Sulfoxide), the concentration of Samples is 10 mmol/L, 1 mmol/L, 100 μmol/L, 10 μmol/L, 1 μmol/L, 0.1 μmol/L, and further diluted with cell culture medium. The final does concentration were 10 μmol/L, 1 μmol/L, 100 nmol/L, 10 nmol/L, 1 nmol/L, 0.1 nmol/L, 0 nmol/L (the control group). The final DMSO concentration used was 1‰ of total volume of medium in all treatments, including the control group. • Blank: medium • Control: the same dose of DMSO with experiment group, the DMSO was diluted with cell perfect culture medium • Experiment: the cells were treated with the concentration of 10 μmol/L, 1 μmol/L, 100 nmol/L, 10 nmol/L, 1 nmol/L, 0.1 nmol/L • 4. The plates were cultured in a humidified 5% CO2 incubator at 37° C. for 72 h. 20 μL of 3-(4,5-dimethylthiazol-2-yl)-2,5-diphenyltetrazolium bromide (MTT) reagent (5 mg/mL) in phosphate buffered serum (PBS) was added to each well. • 5. The plates were cultured in a humidified 5% CO2 incubator at 37° C. for 4 h. Subsequently, the solution was aspirated and 150 uL dimethyl sulfoxide was added to release the formed formazan crystals from the living cells mitochondria into the solution. • 6. After moderated shaking for 3 min, absorbance was measured at 490 nm using microplate reader.

A375 cells = assay: Cell growth inhibition assay (MTT), A375 cells; assay type: cell-based; details: Homo sapiens, A-375, 72 h
Experimental: as §1

COLO 205 tumor xenograft = assay: In vivo anti-tumor efficacy in COLO205 tumor xenograft model
TNF-α = assay: Inhibition of TNF-α expression, LPS-stimulated spleen cells, ELISA; details: Mus musculus, 24 h, read-out: Inhibition of TNF-α expression
Experimental: Take spleens of BALB/c gene reported mice, cultured in RPMI1640 medium (HyClone). Spleen was ground into single cell suspension, added red blood cell lysis buffer (sigma) to suspension, for cracking the red blood cells • 2. […] Dissolved compounds with DMSO and diluted with RPMI1640 medium containing 10% serum, diluted to a final concentration of 200 nM. • 4. Cells were added to 96 well plates, every hole was 100 μL. […] Each compound and control is three-hole wells. • 5. Cultured at 37° C. for 24 h. • 6. […] Using ELISA (enzyme-linked immunosorbent assay) technique for the determination of the amount of TNF-α in the 24 hours.
(§2) Control was DMSO and its concentration was same as the final concentration of test compounds.

Interleukin-4 (IL-4) = assay: Inhibition of Interleukin-4 (IL-4), GFP+ of CD4+ spleen cells by flow cytometry; details: Mus musculus, 48 h, read-out: IL-4 inhibition
Experimental: Take spleens of BALB/c gene reported mice, culture in RPMI1640 medium (HyClone). • 2. Spleen will be ground into single cell suspension, add red blood cell lysis buffer (sigma) to suspension, for cracking the red blood cells. • 3. […] Dissolved compounds with DMSO and diluted with RPMI1640 medium containing 10% serum, diluted to a final concentration of 200 nM. • 5. […] After mixing, cells were added to 96 well plates, every hole is 100 μL. […] Each compound and control is three-hole wells, cultured at 37° C. for 48 h. • 6. After 48 h, the plates removed from the incubator and each well was collected in the flow tube (BD). • 7. Added cells to ice pre-cooling of PBS (phosphate buffer solution) solution to wash, and in 100 μL of PBS, join the fluorescent antibody CD4 0.5 μL, put in ice 15 min avoid light. • 8. After dyeing wash antibodies with the ice pre-cooling PBS solution. And prepare for flow cytometric detection. • 9. Using flow cytometry (BD FACS calibur) select the CD4+ cell populations, and detect GFP+ cells accounted for the percentage of CD4+ cells, to determine the impact of compounds on IL-4. • 10.
as §2

[2] = 10 mg/kg QD by gavage x 18 days

| Compound | IC50 (HT29 cells) [nM] | IC50 (A375 cells) [nM] | other results |
| --- | --- | --- | --- |
| Cn1cnc2c(F)c(Nc3ccc(Br)cc3Cl)c(C(=O)NOCCO)cc21 [AZD6244, reference compound] | – | – | Tumor growth inhibition (TGI) [1]: 48.3% |
| O=C(NOCC(O)CO)c1cc2ocnc2c(F)c1Nc1ccc(I)cc1F (centres unmarked) [Compound 2, N-(2,3-dihydroxypropoxy)-4-fluoro-5-((2-fluoro-4-iodophenyl)amino)benzo[d]oxazole-6-carboxamide] | 8.1 | 4.6 | – |
| O=S(=O)(Nc1cc2ocnc2c(F)c1Nc1ccc(Br)cc1Cl)C1CC1 [Compound 7, N-(5-((4-bromo-2-chlorophenyl)amino)-4-fluorobenzo[d]oxazol-6-yl)cyclopropanesulfonamide] | 283 | 239 | – |
| O=S(=O)(Nc1cc2ocnc2c(F)c1Nc1ccc(Br)cc1Cl)C1(CC(O)CO)CC1 (centres unmarked) [Compound 8, N-(5-((4-bromo-2-chlorophenyl)amino)-4-fluorobenzo[d]oxazol-6-yl)-1-(2,3-dihydroxypropyl)cyclopropane-1-sulfonamide] | 1090 | 738 | – |
| O=C(NOCCO)c1cc2scnc2c(F)c1Nc1ccc(Br)cc1Cl [Compound 11, 5-((4-bromo-2-chlorophenyl)amino)-4-fluoro-N-(2-hydroxyethoxy)benzo[d]thiazole-6-carboxamide] | 51.2 | 61.4 | Tumor growth inhibition (TGI) [1]: 68.51%; Tumor growth inhibition vs vehicle control group (COLO 205 tumor xenograft; [2]): 82.14%; inhibition at 0.1 µM (TNF-α): ≤ 40%; inhibition at 0.1 µM (Interleukin-4 (IL-4)): ≤ 50% |
| O=C(NOCC(O)CO)c1cc2scnc2c(F)c1Nc1ccc(Br)cc1Cl (centres unmarked) [Compound 12, N-(2,3-dihydroxypropoxy)-4-fluoro-5-((4-bromo-2-chlorophenyl)amino)benzo[d]thiazole-6-carboxamide] | 738 | 174 | – |
| O=S(=O)(Nc1cc2scnc2c(F)c1Nc1ccc(I)cc1F)C1CC1 [Compound 13, N-(4-fluoro-5-((2-fluoro-4-iodophenyl)amino)benzo[d]thiazol-6-yl)cyclopropanesulfonamide] | 98.3 | 207 | – |
| O=S(=O)(Nc1cc2scnc2c(F)c1Nc1ccc(Br)cc1Cl)C1(CC(O)CO)CC1 (centres unmarked) [Compound 16, N-(5-((4-bromo-2-chlorophenyl)amino)-4-fluorobenzo[d]thiazol-6-yl)-1-(2,3-dihydroxypropyl)cyclopropane-1-sulfonamide] | 1310 | 151 | – |
| O=C(NOCCO)c1cc2snnc2c(F)c1Nc1ccc(I)cc1F [Compound 17, 4-fluoro-5-((2-fluoro-4-iodophenyl)amino)-N-(2-hydroxyethoxy)benzo[d][1,2,3]thiadiazole-6-carboxamide] | 1 | 0.24 | Tumor growth inhibition (TGI) [1]: 88.75%; Tumor growth inhibition vs vehicle control group (COLO 205 tumor xenograft; 5 mg/kg QD by gavage x 18 days): 95.35%; inhibition at 0.1 µM (TNF-α): ≤ 40%; inhibition at 0.1 µM (Interleukin-4 (IL-4)): ≤ 50% |
| O=C(NOCC(O)CO)c1cc2snnc2c(F)c1Nc1ccc(I)cc1F (centres unmarked) [Compound 18, N-(2,3-dihydroxypropoxy)-4-fluoro-5-((2-fluoro-4-iodophenyl)amino)benzo[d][1,2,3]thiadiazole-6-carboxamide] | 66.4 | 16.8 | – |
| O=S(=O)(Nc1cc2snnc2c(F)c1Nc1ccc(Br)cc1Cl)C1CC1 [Compound 23, N-(5-((4-bromo-2-chlorophenyl)amino)-4-fluorobenzo[d][1,2,3]thiadiazol-6-yl)cyclopropanesulfonamide] | 3640 | 562 | – |
| O=S(=O)(Nc1cc2snnc2c(F)c1Nc1ccc(Br)cc1Cl)C1(CC(O)CO)CC1 (centres unmarked) [Compound 24, N-(5-((4-bromo-2-chlorophenyl)amino)-4-fluorobenzo[d][1,2,3]thiadiazol-6-yl)-1-(2,3-dihydroxypropyl)cyclopropane-1-sulfonamide] | 4370 | 992 | – |
| O=C(NOCCO)c1cc2ocnc2c(F)c1Nc1ccc(Br)cc1F [Compound 25, 4-fluoro-5-((2-fluoro-4-bromophenyl)amino)-N-(2-hydroxyethoxy)benzo[d]oxazole-6-carboxamide] | – | – | inhibition at 0.1 µM (TNF-α): ≤ 40%; inhibition at 0.1 µM (Interleukin-4 (IL-4)): ≤ 50% |
| O=C(NOCCO)c1cc2scnc2c(F)c1Nc1ccc(Br)cc1F [Compound 34, 4-fluoro-5-((2-fluoro-4-bromophenyl)amino)-N-(2-hydroxyethoxy)benzo[d]thiazol-6-carboxamide] | – | – | inhibition at 0.1 µM (TNF-α): ≤ 40%; inhibition at 0.1 µM (Interleukin-4 (IL-4)): ≤ 50% |
| O=C(NOCCO)c1cc2snnc2c(F)c1Nc1ccc(Br)cc1F [Compound 43, 5-((4-bromo-2-fluorophenyl)amino)-4-fluoro-N-(2-hydroxyethoxy)benzo[d][1,2,3]thiadiazole-6-carboxamide] | – | – | inhibition at 0.1 µM (TNF-α): ≤ 40%; inhibition at 0.1 µM (Interleukin-4 (IL-4)): ≤ 50% |
| Cn1cnc2c(F)c(Nc3ccc(Br)cc3Cl)c(C(=O)NOCCO)cc21 [Reference compound 1, reference compound] | – | – | Tumor growth inhibition vs vehicle control group (COLO 205 tumor xenograft; [2]): 72.80% |

The next lines start with results.

| IC50 (HT29 cells) [nM] | IC50 (A375 cells) [nM] | Compound | other results |
| --- | --- | --- | --- |
| 2.3 | 0.85 | O=C(NOCCO)c1cc2ocnc2c(F)c1Nc1ccc(I)cc1F [Compound 1, 4-fluoro-5-((2-fluoro-4-iodophenyl)amino)-N-(2-hydroxyethoxy)benzo[d]oxazole-6-carboxamide] | Tumor growth inhibition (TGI) [1]: 55.1%; Tumor growth inhibition vs vehicle control group (COLO 205 tumor xenograft; [2]): 91.22%; inhibition at 0.1 µM (TNF-α): ≤ 40%; inhibition at 0.1 µM (Interleukin-4 (IL-4)): ≤ 50% |
| 51.8 | 61.3 | O=C(NOCCO)c1cc2ocnc2c(F)c1Nc1ccc(Br)cc1Cl [Compound 3, 5-((4-bromo-2-chlorophenyl)amino)-4-fluoro-N-(2-hydroxyethoxy)benzo[d]oxazole-6-carboxamide] | Tumor growth inhibition (TGI) [1]: 32.3%; Tumor growth inhibition vs vehicle control group (COLO 205 tumor xenograft; 20 mg/kg QD by gavage x 18 days): 47.11%; inhibition at 0.1 µM (TNF-α): ≤ 40%; inhibition at 0.1 µM (Interleukin-4 (IL-4)): ≤ 50% |
| 138 | 97.5 | O=C(NOCC(O)CO)c1cc2ocnc2c(F)c1Nc1ccc(Br)cc1Cl (centres unmarked) [Compound 4, 5-((4-bromo-2-chlorophenyl)amino)-N-(2,3-dihydroxypropoxy)-4-fluorobenzo[d]oxazole-6-carboxamide] | – |
| 81.6 | 125 | O=S(=O)(Nc1cc2ocnc2c(F)c1Nc1ccc(I)cc1F)C1CC1 [Compound 5, N-(4-fluoro-5-((2-fluoro-4-iodophenyl)amino)benzo[d]oxazol-6-yl)cyclopropanesulfonamide] | – |
| 78.3 | 103 | O=S(=O)(Nc1cc2ocnc2c(F)c1Nc1ccc(I)cc1F)C1(CC(O)CO)CC1 (centres unmarked) [Compound 6, 1-(2,3-dihydroxypropyl)-N-(4-fluoro-5-((2-fluoro-4-iodophenyl)amino)benzo[d]oxazol-6-yl)cyclopropane-1-sulfonamide] | – |
| 18.5 | 11.2 | O=C(NOCC(O)CO)c1cc2scnc2c(F)c1Nc1ccc(I)cc1F (centres unmarked) [Compound 10, N-(2,3-dihydroxypropoxy)-4-fluoro-5-((2-fluoro-4-iodophenyl)amino)benzo[d]thiazole-6-carboxamide] | – |
| 201 | 119 | O=S(=O)(Nc1cc2scnc2c(F)c1Nc1ccc(I)cc1F)C1(CC(O)CO)CC1 (centres unmarked) [Compound 14, 1-(2,3-dihydroxypropyl)-N-(4-fluoro-5-((2-fluoro-4-iodophenyl)amino)benzo[d]thiazol-6-yl)cyclopropane-1-sulfonamide] | – |
| 184 | 99.8 | O=S(=O)(Nc1cc2scnc2c(F)c1Nc1ccc(Br)cc1Cl)C1CC1 [Compound 15, N-(5-((4-bromo-2-chlorophenyl)amino)-4-fluorobenzo[d]thiazol-6-yl)cyclopropanesulfonamide] | – |
| 65.7 | 49.4 | O=C(NOCCO)c1cc2snnc2c(F)c1Nc1ccc(Br)cc1Cl [Compound 19, 5-((4-bromo-2-chlorophenyl)amino)-4-fluoro-N-(2-hydroxyethoxy)benzo[d][1,2,3]thiadiazole-6-carboxamide] | Tumor growth inhibition (TGI) [1]: 50.9%; Tumor growth inhibition vs vehicle control group (COLO 205 tumor xenograft; [2]): 86.22%; inhibition at 0.1 µM (TNF-α): ≤ 40%; inhibition at 0.1 µM (Interleukin-4 (IL-4)): ≤ 50% |
| 687 | 97.3 | O=C(NOCC(O)CO)c1cc2snnc2c(F)c1Nc1ccc(Br)cc1Cl (centres unmarked) [Compound 20, 5-((4-bromo-2-chlorophenyl)amino)-N-(2,3-dihydroxypropoxy)-4-fluorobenzo[d][1,2,3]thiadiazole-6-carboxamide] | – |
| 1080 | 1770 | O=S(=O)(Nc1cc2snnc2c(F)c1Nc1ccc(I)cc1F)C1CC1 [Compound 21, N-(4-fluoro-5-((2-fluoro-4-iodophenyl)amino)benzo[d][1,2,3]thiadiazol-6-yl)cyclopropanesulfonamide] | – |
| 2620 | 1160 | O=S(=O)(Nc1cc2snnc2c(F)c1Nc1ccc(I)cc1F)C1(CC(O)CO)CC1 (centres unmarked) [Compound 22, 1-(2,3-dihydroxypropyl)-N-(4-fluoro-5-((2-fluoro-4-iodophenyl)amino)benzo[d][1,2,3]thiadiazol-6-yl)cyclopropane-1-sulfonamide] | – |
